Assay results reported in ChEMBL document CHEMBL3112395, “Synthesis and structure-activity relationship studies of N-terminal analogues of the antimicrobial peptide tridecaptin A(1)” (J Med Chem, 2014).
≈ marks a conversion by molar mass, not a printed value.

What was measured:
Format in all cases: functional
Enterococcus faecium = assay: Antibacterial activity against Enterococcus faecium ATCC 19434 assessed as growth inhibition by broth dilution method
Listeria monocytogenes = assay: Antibacterial activity against Listeria monocytogenes ATCC […] assessed as growth inhibition by broth dilution method
Staphylococcus aureus = assay: Antibacterial activity against Staphylococcus aureus ATCC 29213 assessed as growth inhibition by broth dilution method
Enterococcus faecalis = assay: Antibacterial activity against Enterococcus faecalis ATCC 29212 assessed as growth inhibition by broth dilution method
Acinetobacter baumannii = assay: Antibacterial activity against Acinetobacter baumannii ATCC 19606 assessed as growth inhibition by broth dilution method
Klebsiella pneumoniae = assay: Antibacterial activity against Klebsiella pneumoniae ATCC 13883 assessed as growth inhibition by broth dilution method
Campylobacter jejuni = assay: Antibacterial activity against Campylobacter jejuni NCTC 11168 assessed as growth inhibition by broth dilution method
Salmonella enterica = assay: Antibacterial activity against Salmonella enterica ATCC 13311 assessed as growth inhibition by broth dilution method
Pseudomonas aeruginosa = assay: Antibacterial activity against Pseudomonas aeruginosa ATCC 27853 assessed as growth inhibition by broth dilution method
Escherichia coli = assay: Antibacterial activity against Escherichia coli ATCC 25922 assessed as growth inhibition by broth dilution method

Structure (SMILES)	MIC (Enterococcus faecium) [µg/mL]	MIC (Listeria monocytogenes) [µg/mL]	MIC (Staphylococcus aureus) [µg/mL]	MIC (Enterococcus faecalis) [µg/mL]	MIC (Acinetobacter baumannii) [µg/mL]	MIC (Klebsiella pneumoniae) [µg/mL]	MIC (Campylobacter jejuni) [µg/mL]	MIC (Salmonella enterica) [µg/mL]	MIC (Pseudomonas aeruginosa) [µg/mL]	MIC (Escherichia coli) [µg/mL]
CCCCCC(=O)N[C@@H](C(=O)N[C@H](CCN)C(=O)NCC(=O)N[C@H](CO)C(=O)N[C@H](Cc1c[nH]c2ccccc12)C(=O)N[C@@H](CO)C(=O)N[C@@H](CCN)C(=O)N[C@H](CCN)C(=O)N[C@@H](Cc1ccccc1)C(=O)N[C@@H](CCC(=O)O)C(=O)N[C@H](C(=O)N[C@@H](C(=O)N[C@@H](C)C(=O)O)[C@@H](C)CC)C(C)C)C(C)C	> 100	100 (≈ 67 µM)	> 100	> 100	25 (≈ 16.7 µM)	3.13 (≈ 2.1 µM)	3.13 (≈ 2.1 µM)	6.25 (≈ 4.19 µM)	50 (≈ 33.5 µM)	3.13 (≈ 2.1 µM)
CCCCCCC(=O)N[C@@H](C(=O)N[C@H](CCN)C(=O)NCC(=O)N[C@H](CO)C(=O)N[C@H](Cc1c[nH]c2ccccc12)C(=O)N[C@@H](CO)C(=O)N[C@@H](CCN)C(=O)N[C@H](CCN)C(=O)N[C@@H](Cc1ccccc1)C(=O)N[C@@H](CCC(=O)O)C(=O)N[C@H](C(=O)N[C@@H](C(=O)N[C@@H](C)C(=O)O)[C@@H](C)CC)C(C)C)C(C)C	> 100	50 (≈ 33.2 µM)	> 100	> 100	12.5 (≈ 8.3 µM)	6.25 (≈ 4.15 µM)	1.56 (≈ 1.04 µM)	12.5 (≈ 8.3 µM)	50 (≈ 33.2 µM)	6.25 (≈ 4.15 µM)
CCCCCCCCC(=O)N[C@@H](C(=O)N[C@H](CCN)C(=O)NCC(=O)N[C@H](CO)C(=O)N[C@H](Cc1c[nH]c2ccccc12)C(=O)N[C@@H](CO)C(=O)N[C@@H](CCN)C(=O)N[C@H](CCN)C(=O)N[C@@H](Cc1ccccc1)C(=O)N[C@@H](CCC(=O)O)C(=O)N[C@H](C(=O)N[C@@H](C(=O)N[C@@H](C)C(=O)O)[C@@H](C)CC)C(C)C)C(C)C	100 (≈ 65.2 µM)	25 (≈ 16.3 µM)	100 (≈ 65.2 µM)	100 (≈ 65.2 µM)	50 (≈ 32.6 µM)	12.5 (≈ 8.14 µM)	0.78 (≈ 0.508 µM)	6.25 (≈ 4.07 µM)	100 (≈ 65.2 µM)	12.5 (≈ 8.14 µM)
CCCCCCCCCC(=O)N[C@@H](C(=O)N[C@H](CCN)C(=O)NCC(=O)N[C@H](CO)C(=O)N[C@H](Cc1c[nH]c2ccccc12)C(=O)N[C@@H](CO)C(=O)N[C@@H](CCN)C(=O)N[C@H](CCN)C(=O)N[C@@H](Cc1ccccc1)C(=O)N[C@@H](CCC(=O)O)C(=O)N[C@H](C(=O)N[C@@H](C(=O)N[C@@H](C)C(=O)O)[C@@H](C)CC)C(C)C)C(C)C	100 (≈ 64.6 µM)	25 (≈ 16.1 µM)	> 100	> 100	12.5 (≈ 8.07 µM)	6.25 (≈ 4.04 µM)	0.4 (≈ 0.258 µM)	12.5 (≈ 8.07 µM)	> 100	6.25 (≈ 4.04 µM)
CCCCCCCCCCC(=O)N[C@@H](C(=O)N[C@H](CCN)C(=O)NCC(=O)N[C@H](CO)C(=O)N[C@H](Cc1c[nH]c2ccccc12)C(=O)N[C@@H](CO)C(=O)N[C@@H](CCN)C(=O)N[C@H](CCN)C(=O)N[C@@H](Cc1ccccc1)C(=O)N[C@@H](CCC(=O)O)C(=O)N[C@H](C(=O)N[C@@H](C(=O)N[C@@H](C)C(=O)O)[C@@H](C)CC)C(C)C)C(C)C	100 (≈ 64 µM)	25 (≈ 16 µM)	> 100	> 100	12.5 (≈ 8 µM)	6.25 (≈ 4 µM)	0.4 (≈ 0.256 µM)	12.5 (≈ 8 µM)	> 100	6.25 (≈ 4 µM)
CCCCCCCCCCCCCC(=O)N[C@@H](C(=O)N[C@H](CCN)C(=O)NCC(=O)N[C@H](CO)C(=O)N[C@H](Cc1c[nH]c2ccccc12)C(=O)N[C@@H](CO)C(=O)N[C@@H](CCN)C(=O)N[C@H](CCN)C(=O)N[C@@H](Cc1ccccc1)C(=O)N[C@@H](CCC(=O)O)C(=O)N[C@H](C(=O)N[C@@H](C(=O)N[C@@H](C)C(=O)O)[C@@H](C)CC)C(C)C)C(C)C	> 100	> 100	> 100	> 100	> 100	> 100	12.5 (≈ 7.79 µM)	> 100	> 100	> 100
CCCCCCCCCCCCCCCC(=O)N[C@@H](C(=O)N[C@H](CCN)C(=O)NCC(=O)N[C@H](CO)C(=O)N[C@H](Cc1c[nH]c2ccccc12)C(=O)N[C@@H](CO)C(=O)N[C@@H](CCN)C(=O)N[C@H](CCN)C(=O)N[C@@H](Cc1ccccc1)C(=O)N[C@@H](CCC(=O)O)C(=O)N[C@H](C(=O)N[C@@H](C(=O)N[C@@H](C)C(=O)O)[C@@H](C)CC)C(C)C)C(C)C	> 100	> 100	> 100	> 100	> 100	> 100	50 (≈ 30.6 µM)	> 100	> 100	> 100
CC[C@H](C)[C@@H](NC(=O)[C@@H](NC(=O)[C@H](CCC(=O)O)NC(=O)[C@H](Cc1ccccc1)NC(=O)[C@@H](CCN)NC(=O)[C@H](CCN)NC(=O)[C@H](CO)NC(=O)[C@@H](Cc1c[nH]c2ccccc12)NC(=O)[C@@H](CO)NC(=O)CNC(=O)[C@@H](CCN)NC(=O)[C@H](NC(=O)CCC1c2ccccc2-c2ccccc21)C(C)C)C(C)C)C(=O)N[C@@H](C)C(=O)O	> 100	100 (≈ 61.9 µM)	> 100	> 100	> 100	100 (≈ 61.9 µM)	1.56 (≈ 0.966 µM)	> 100	> 100	6.25 (≈ 3.87 µM)
CC[C@H](C)[C@@H](NC(=O)[C@@H](NC(=O)[C@H](CCC(=O)O)NC(=O)[C@H](Cc1ccccc1)NC(=O)[C@@H](CCN)NC(=O)[C@H](CCN)NC(=O)[C@H](CO)NC(=O)[C@@H](Cc1c[nH]c2ccccc12)NC(=O)[C@@H](CO)NC(=O)CNC(=O)[C@@H](CCN)NC(=O)[C@H](NC(=O)CCc1c2ccccc2cc2ccccc12)C(C)C)C(C)C)C(=O)N[C@@H](C)C(=O)O	> 100	50 (≈ 30.7 µM)	> 100	> 100	25 (≈ 15.4 µM)	12.5 (≈ 7.68 µM)	1.56 (≈ 0.959 µM)	12.5 (≈ 7.68 µM)	> 100	6.25 (≈ 3.84 µM)
CC[C@H](C)[C@@H](NC(=O)[C@@H](NC(=O)[C@H](CCC(=O)O)NC(=O)[C@H](Cc1ccccc1)NC(=O)[C@@H](CCN)NC(=O)[C@H](CCN)NC(=O)[C@H](CO)NC(=O)[C@@H](Cc1c[nH]c2ccccc12)NC(=O)[C@@H](CO)NC(=O)CNC(=O)[C@@H](CCN)NC(=O)[C@H](NC(=O)CC12CC3CC(CC(C3)C1)C2)C(C)C)C(C)C)C(=O)N[C@@H](C)C(=O)O	50 (≈ 31.8 µM)	25 (≈ 15.9 µM)	50 (≈ 31.8 µM)	50 (≈ 31.8 µM)	12.5 (≈ 7.96 µM)	12.5 (≈ 7.96 µM)	1.56 (≈ 0.993 µM)	6.25 (≈ 3.98 µM)	50 (≈ 31.8 µM)	6.25 (≈ 3.98 µM)
CC[C@H](C)[C@@H](NC(=O)[C@@H](NC(=O)[C@H](CCC(=O)O)NC(=O)[C@H](Cc1ccccc1)NC(=O)[C@@H](CCN)NC(=O)[C@H](CCN)NC(=O)[C@H](CO)NC(=O)[C@@H](Cc1c[nH]c2ccccc12)NC(=O)[C@@H](CO)NC(=O)CNC(=O)[C@@H](CCN)NC(=O)[C@H](NC(=O)COCCOCCOC)C(C)C)C(C)C)C(=O)N[C@@H](C)C(=O)O	> 100	> 100	> 100	> 100	> 100	> 100	> 100	> 100	> 100	> 100
CC[C@H](C)[C@@H](NC(=O)[C@@H](NC(=O)[C@H](CCC(=O)O)NC(=O)[C@H](Cc1ccccc1)NC(=O)[C@@H](CCN)NC(=O)[C@H](CCN)NC(=O)[C@H](CO)NC(=O)[C@@H](Cc1c[nH]c2ccccc12)NC(=O)[C@@H](CO)NC(=O)CNC(=O)[C@@H](CCN)NC(=O)[C@H](NC(=O)CCCC[C@@H]1SC[C@@H]2NC(=O)N[C@@H]21)C(C)C)C(C)C)C(=O)N[C@@H](C)C(=O)O	> 100	> 100	> 100	> 100	> 100	50 (≈ 30.8 µM)	50 (≈ 30.8 µM)	50 (≈ 30.8 µM)	> 100	50 (≈ 30.8 µM)
